Data as given in patent US20210189342A1, “COMPOSITIONS AND METHODS FOR MODULATING MONOCYTE AND MACROPHAGE INFLAMMATORY PHENOTYPES AND IMMUNOTHERAPY USES THEREOF” (Verseau Therapeutics, Inc., priority 2018, published 2021).

How the values were obtained:
[1] = tested on: CD84; assay: siRNA dose response, CD84 mRNA knockdown, Dual-Glo Luciferase Assay; format: cell-based, human; conditions: Hepa1-6 + reporter plasmid, 24 hr
Protocol: (§1) Dose response curves for siRNAs were generated in vitro using a variety of cell lines according to Table 4.
(§2) Briefly, cells were seeded in 96-well plates and reverse transfected with siRNA, Lipofectamine® 2000 (0.5 uL/well; ThermoFisher), and, in some cases, a reporter plasmid (50 ng/well). The reporter plasmid (psiCHECK™-2, Promega) encoded both firefly luciferase and the gene of interest fused to renilla luciferase; silencing of the gene of interest results in proportional silencing of renilla luciferase but leaves firefly luciferase unaffected as an internal control.
(§3) After 24 hr incubation at 37° C., mRNA knockdown was measured using an endpoint assay. For targets without a reporter plasmid, a branched DNA (bDNA) assay was performed according to the manufacturer's instructions (QuantiGene® Singleplex Gene Expression Assay, ThermoFisher) to measure both the target gene and GAPDH (housekeeping gene) mRNA. Data are plotted as siRNA concentration (nM) vs. remaining mRNA (ratio of target gene to GAPDH, normalized to mock siRNA-transfected cells). For targets with a reporter plasmid, a Dual-Glo® Luciferase Assay was performed according to the manufacturer's instructions (Promega) to measure firefly and renilla luciferase expression. Data are plotted as siRNA concentration (nM) vs. remaining mRNA (ratio of renilla to firefly luminescence, normalized to mock siRNA-transfected cells).
(§4) For all dose response curves, a 4-parameter logistic model was applied to determine the IC50 of each siRNA sequence (Table 5 and FIG. 2). Data shown in Table 5 and FIG. 2 represent the mean of quadruplicates, +/−standard deviation.

[2] = tested on: SIGLEC9; assay: siRNA dose response, SIGLEC9 mRNA knockdown, Dual-Glo Luciferase Assay; format: cell-based, human; conditions: Hepa1-6 + reporter plasmid, 24 hr
Protocol: as §1, §2, §3, §4

Row | Substance | IC50 [1] [nM] | IC50 [2] [nM]
1 | XD-09615: siRNA targeting CD84 (sense 5'-ggAAcuGGGuAuAauccAAdTsdT-3'; antisense 5'-UUGGAUuAuACCcAGUUCCdTsdT-3'; as printed in the source, key not given here) | 0.048 | 
2 | XD-09193: siRNA targeting SIGLEC9 (sense 5'-guAuccAcAGucuuGGGAAdTsdT-3'; antisense 5'-UUCCcAAGACUGUGGAuACdTsdT-3'; RNA with 2'-O-methyl and phosphorothioate modifications, case key not given here, as printed in the source, key not given here) |  | 0.459
3 | XD-09189: siRNA targeting SIGLEC9 (sense 5'-agAccGuccAucucAAcGudTsdT-3'; antisense 5'-ACGUUGAGAUGGACGGUCUdTsdT-3'; RNA with 2'-O-methyl and phosphorothioate modifications, case key not given here, as printed in the source, key not given here) |  | 0.694
4 | XD-09184: siRNA targeting SIGLEC9 (sense 5'-ggGccAAuAcAGAccAGGAdTsdT-3'; antisense 5'-UCCUGGUCUGuAUUGGCCCdTsdT-3'; RNA with 2'-O-methyl and phosphorothioate modifications, case key not given here, as printed in the source, key not given here) |  | 0.127
5 | XD-09197: siRNA targeting SIGLEC9 (sense 5'-ggAGAuAcGGGcAuAGAGGdTsdT-3'; antisense 5'-CCUCuAUGCCCGuAUCUCCdTsdT-3'; as printed in the source, key not given here) |  | 0.851
6 | XD-09616: siRNA targeting CD84 (sense 5'-gcAccAAcuAccAuuAGcAdTsdT-3'; antisense 5'-AGCuAAUGGuAGUUGGUGCdTsdT-3'; RNA with 2'-O-methyl and phosphorothioate modifications, case key not given here, as printed in the source, key not given here) | 0.067 | 
7 | XD-09183: siRNA targeting SIGLEC9 (sense 5'-guuccGGGAAGGGgccAAudTsdT-3'; antisense 5'-AUUGGCCCCUUCCCGGAACdTsdT-3'; RNA with 2'-O-methyl and phosphorothioate modifications, case key not given here, as printed in the source, key not given here) |  | 0.229
8 | XD-09611: siRNA targeting CD84 (sense 5'-gaGGGuAAuGuccuucAAAdTsdT-3'; antisense 5'-UUUGAAGGAcAUuACCCUCdTsdT-3'; as printed in the source, key not given here) | 0.082 | 
9 | XD-09617: siRNA targeting CD84 (sense 5'-cacuAcAGuuAAcgcuGAAdTsdT-3'; antisense 5'-UUcAGCGUuAACUGuAGUGdTsdT-3'; as printed in the source, key not given here) | 0.01 | 
10 | XD-09612: siRNA targeting CD84 (sense 5'-gguAAuGuccuucaAAucudTsdT-3'; antisense 5'-AGAUUUGAAGGAcAUuACCdTsdT-3'; as printed in the source, key not given here) | 0.351 | 
11 | XD-09190: siRNA targeting SIGLEC9 (sense 5'-ccGuccAucucAAcGuGucdTsdT-3'; antisense 5'-GAcACGUUGAGAUGGACGGdTsdT-3'; RNA with 2'-O-methyl and phosphorothioate modifications, case key not given here, as printed in the source, key not given here) |  | 0.905
12 | XD-09610: siRNA targeting CD84 (sense 5'-accAAAAAuuAcAcAGAGudTsdT-3'; antisense 5'-ACUCUGUGuAAUUUUUGGUdTsdT-3'; as printed in the source, key not given here) | 0.047 | 
13 | XD-09613: siRNA targeting CD84 (sense 5'-ucAuAuGAucAuuuAAGGAdTsdT-3'; antisense 5'-UCCUuAAAUGAUcAuAUGAdTsdT-3'; RNA with 2'-O-methyl and phosphorothioate modifications, case key not given here, as printed in the source, key not given here) | 0.241 | 
14 | XD-09188: siRNA targeting SIGLEC9 (sense 5'-gaAcAAGAccGuccAucucdTsdT-3'; antisense 5'-GAGAUGGACGGUCUUGUUCdTsdT-3'; RNA with 2'-O-methyl and phosphorothioate modifications, case key not given here, as printed in the source, key not given here) |  | 0.148
15 | XD-09614: siRNA targeting CD84 (sense 5'-gaAcAcAGuuuAuuccGAAdTsdT-3'; antisense 5'-UUCGGAAuAAACUGUGUUCdTsdT-3'; as printed in the source, key not given here) | < 0.005 | 
16 | XD-09194: siRNA targeting SIGLEC9 (sense 5'-cucAGcAGGucuAccuGAAdTsdT-3'; antisense 5'-UUcAGGuAGACCUGCUGAGdTsdT-3'; RNA with 2'-O-methyl and phosphorothioate modifications, case key not given here, as printed in the source, key not given here) |  | 5.63
17 | XD-09181: siRNA targeting SIGLEC9 (sense 5'-guAAAcuGcuGAcgAuGcAdTsdT-3'; antisense 5'-UGcAUCGUcAGcAGUUuACdTsdT-3'; RNA with 2'-O-methyl and phosphorothioate modifications, case key not given here, as printed in the source, key not given here) |  | 0.286
18 | XD-09186: siRNA targeting SIGLEC9 (sense 5'-ucAccGGcucucuguGAAudTsdT-3'; antisense 5'-AUUcAcAGAGAGCCGGUGAdTsdT-3'; RNA with 2'-O-methyl and phosphorothioate modifications, case key not given here, as printed in the source, key not given here) |  | 0.488
19 | XD-09187: siRNA targeting SIGLEC9 (sense 5'-gaccAcGaacAAGaccGucdTsdT-3'; antisense 5'-GACGGUCUUGUUCGUGGUCdTsdT-3'; RNA with 2'-O-methyl and phosphorothioate modifications, case key not given here, as printed in the source, key not given here) |  | 0.406
20 | XD-09180: siRNA targeting SIGLEC9 (sense 5'-acAAGuAAAcuGcuGacGAdTsdT-3'; antisense 5'-UCGUcAGcAGUUuACUUGUdTsdT-3'; RNA with 2'-O-methyl and phosphorothioate modifications, case key not given here, as printed in the source, key not given here) |  | 0.04
21 | XD-09192: siRNA targeting SIGLEC9 (sense 5'-caGuAuccAcAGucuuGGGdTsdT-3'; antisense 5'-CCcAAGACUGUGGAuACUGdTsdT-3'; RNA with 2'-O-methyl and phosphorothioate modifications, case key not given here, as printed in the source, key not given here) |  | 0.236
22 | XD-09619: siRNA targeting CD84 (sense 5'-ccuuAcAGcAuAAcuAAuudTsdT-3'; antisense 5'-AAUuAGUuAUGCUGuAAGGdTsdT-3'; RNA with 2'-O-methyl and phosphorothioate modifications, case key not given here, as printed in the source, key not given here) | < 0.005 | 
23 | XD-09182: siRNA targeting SIGLEC9 (sense 5'-ucGcAuGGcuGGAuuuAccdTsdT-3'; antisense 5'-GGuAAAUCcAGCcAUGCGAdTsdT-3'; RNA with 2'-O-methyl and phosphorothioate modifications, case key not given here, as printed in the source, key not given here) |  | 0.837
24 | XD-09195: siRNA targeting SIGLEC9 (sense 5'-gcGuGGGAGAuAcgGGcAudTsdT-3'; antisense 5'-AUGCCCGuAUCUCCcACGCdTsdT-3'; as printed in the source, key not given here) |  | 0.125
25 | XD-09185: siRNA targeting SIGLEC9 (sense 5'-ccAGAAGAAGuGAuGcGGGdTsdT-3'; antisense 5'-CCCGcAUcACUUCUUCUGGdTsdT-3'; RNA with 2'-O-methyl and phosphorothioate modifications, case key not given here, as printed in the source, key not given here) |  | 0.094
26 | XD-09618: siRNA targeting CD84 (sense 5'-gguAucAGGAAucaAAAuudTsdT-3'; antisense 5'-AAUUUUGAUUCCUGAuACCdTsdT-3'; as printed in the source, key not given here) | < 0.005 | 
